Data on 37 compounds can be found in patent US8541588B2, “Sulfonamide derivatives” (Pfizer Limited, priority 2009, dated 2013).

This experiment deals with T1, Nav1.7 (or SCN9A) channel; HEK cells stably transfected with hSCN9A (Homo sapiens, UniProt Q15858).
T1 construct: expressed in transfected cells
Description: Nav1.7 block, PatchXpress 7000 automated whole-cell voltage clamp, estimated IC50 (EIC50). Type of experiment: cell-based. The settings on record: PatchXpress platform; hSCN9A HEK cells held at V1/2 of inactivation; estimated IC50.

Some results are limits rather than exact numbers.

T1 sequence (Q15858 whole entry): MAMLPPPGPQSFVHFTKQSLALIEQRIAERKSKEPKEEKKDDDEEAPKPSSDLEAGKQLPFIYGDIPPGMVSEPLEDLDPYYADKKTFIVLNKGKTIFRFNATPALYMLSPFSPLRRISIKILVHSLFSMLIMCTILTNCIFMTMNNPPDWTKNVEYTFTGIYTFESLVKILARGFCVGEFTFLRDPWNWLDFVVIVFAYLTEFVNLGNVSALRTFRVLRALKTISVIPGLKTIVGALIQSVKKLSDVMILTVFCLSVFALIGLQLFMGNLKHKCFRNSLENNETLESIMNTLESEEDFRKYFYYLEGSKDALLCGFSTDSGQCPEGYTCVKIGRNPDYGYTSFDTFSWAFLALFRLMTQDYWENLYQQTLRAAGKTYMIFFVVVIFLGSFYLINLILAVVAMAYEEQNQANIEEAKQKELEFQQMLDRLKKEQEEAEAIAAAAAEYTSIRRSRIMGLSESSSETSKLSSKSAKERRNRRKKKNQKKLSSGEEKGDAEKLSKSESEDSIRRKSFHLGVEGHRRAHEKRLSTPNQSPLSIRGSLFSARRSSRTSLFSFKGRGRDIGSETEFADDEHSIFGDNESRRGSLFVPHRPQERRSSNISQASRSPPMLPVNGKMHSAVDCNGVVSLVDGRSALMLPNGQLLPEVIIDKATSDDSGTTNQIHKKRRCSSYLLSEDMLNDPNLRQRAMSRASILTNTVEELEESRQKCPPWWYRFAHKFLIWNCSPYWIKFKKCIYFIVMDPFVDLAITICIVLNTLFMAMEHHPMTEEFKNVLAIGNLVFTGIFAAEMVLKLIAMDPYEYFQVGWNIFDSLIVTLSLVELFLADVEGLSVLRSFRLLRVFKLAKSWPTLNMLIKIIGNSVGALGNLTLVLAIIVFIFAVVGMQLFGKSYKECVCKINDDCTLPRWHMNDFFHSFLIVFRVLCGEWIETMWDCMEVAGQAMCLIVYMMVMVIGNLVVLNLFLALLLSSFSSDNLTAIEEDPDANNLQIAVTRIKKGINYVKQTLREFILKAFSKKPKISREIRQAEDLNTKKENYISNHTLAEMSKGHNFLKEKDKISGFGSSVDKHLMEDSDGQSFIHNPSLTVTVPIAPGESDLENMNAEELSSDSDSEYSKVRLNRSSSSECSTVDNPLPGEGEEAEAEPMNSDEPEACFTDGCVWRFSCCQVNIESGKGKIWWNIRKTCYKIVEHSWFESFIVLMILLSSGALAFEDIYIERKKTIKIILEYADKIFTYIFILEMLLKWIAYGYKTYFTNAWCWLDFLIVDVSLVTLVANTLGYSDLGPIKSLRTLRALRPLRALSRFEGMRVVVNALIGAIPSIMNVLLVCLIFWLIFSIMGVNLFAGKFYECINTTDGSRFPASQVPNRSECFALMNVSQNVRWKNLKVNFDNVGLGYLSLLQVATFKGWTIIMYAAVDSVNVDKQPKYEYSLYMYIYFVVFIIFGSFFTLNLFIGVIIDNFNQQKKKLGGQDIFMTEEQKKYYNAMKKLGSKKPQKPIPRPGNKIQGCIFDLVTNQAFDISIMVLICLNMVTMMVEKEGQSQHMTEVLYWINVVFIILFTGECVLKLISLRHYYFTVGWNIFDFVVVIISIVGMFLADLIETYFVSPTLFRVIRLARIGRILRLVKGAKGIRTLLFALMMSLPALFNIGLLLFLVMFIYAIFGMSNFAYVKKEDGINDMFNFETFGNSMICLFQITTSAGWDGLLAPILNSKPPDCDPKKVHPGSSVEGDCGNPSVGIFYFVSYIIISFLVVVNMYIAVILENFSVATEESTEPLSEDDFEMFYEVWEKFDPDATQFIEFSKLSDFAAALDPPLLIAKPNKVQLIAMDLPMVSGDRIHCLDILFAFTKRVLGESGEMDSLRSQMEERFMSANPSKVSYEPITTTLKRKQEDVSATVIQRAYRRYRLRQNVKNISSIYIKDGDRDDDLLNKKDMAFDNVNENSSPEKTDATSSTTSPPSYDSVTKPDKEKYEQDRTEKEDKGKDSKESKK

As a reminder, the IC50 is the concentration that gives 50% inhibition. Turning to `O=S(=O)(Nc1nccs1)c1ccc(Oc2cccc(OCc3ccccc3)c2)c(F)c1` [Example 119, 4-[3-(benzyloxy)phenoxy]-3-fluoro-N-1,3-thiazol-2-ylbenzenesulfonamide], the IC50 is 17700 nM.

Consider `O=S(=O)(Nc1nccs1)c1ccc(Oc2ccc(OCc3ccccc3)c(F)c2)c(F)c1` [Example 120, 4-[4-(benzyloxy)-3-fluorophenoxy]-3-fluoro-N-1,3-thiazol-2-ylbenzenesulfonamide], for which the IC50 was 37400 nM.

For the compound `O=S(=O)(Nc1nccs1)c1ccc(Oc2ccc(-c3cocn3)cc2)c(F)c1` [Example 121, 3-fluoro-4-[4-(1,3-oxazol-4-yl)phenoxy]-N-1,3-thiazol-2-ylbenzenesulfonamide], the IC50 is 32300 nM.

For the compound `Cc1noc(C)c1Cc1ccc(Oc2ccc(S(=O)(=O)Nc3nccs3)cc2F)cc1` [Example 122, 4-{4-[(3,5-dimethylisoxazol-4-yl)methyl]phenoxy}-3-fluoro-N-1,3-thiazol-2-ylbenzenesulfonamide], the IC50 was 4540 nM.

Consider `Cc1cc(CN2CCCC2)cc(C)c1Oc1ccc(S(=O)(=O)Nc2nccs2)cc1F` [Example 123, 4-[2,6-dimethyl-4-(pyrrolidin-1-ylmethyl)phenoxy]-3-fluoro-N-1,3-thiazol-2-ylbenzenesulfonamide], for which the IC50 is 9200 nM.

With `O=S(=O)(Nc1nccs1)c1ccc(Oc2ccc(Oc3ccc(F)cc3)cc2)c(F)c1` [Example 124, 3-fluoro-4-[4-(4-fluorophenoxy)phenoxy]-N-1,3-thiazol-2-ylbenzenesulfonamide], the IC50 was 15100 nM.

`O=S(=O)(Nc1nccs1)c1ccc(Oc2ccc(CN3CCC3)c(F)c2)c(F)c1` [Example 125, 4-[4-(azetidin-1-ylmethyl)-3-fluorophenoxy]-3-fluoro-N-1,3-thiazol-2-ylbenzenesulfonamide]: the IC50 was 23000 nM.

Take `O=S(=O)(Nc1nccs1)c1ccc(Oc2cccc(Oc3ccccc3)c2)c(F)c1` [Example 126, 3-fluoro-4-(3-phenoxyphenoxy)-N-1,3-thiazol-2-ylbenzenesulfonamide]: the IC50 is 11500 nM.

For `O=S(=O)(Nc1nccs1)c1ccc(Oc2ccc(Oc3ccccc3)cc2)c(F)c1` [Example 127, 3-fluoro-4-(4-phenoxyphenoxy)-N-1,3-thiazol-2-ylbenzenesulfonamide], the IC50 is greater than 10000 nM.

With `Cc1cc(-c2ccccc2Oc2ccc(S(=O)(=O)Nc3nccs3)cc2F)sn1` [Example 128, 3-fluoro-4-[2-(3-methylisothiazol-5-yl)phenoxy]-N-1,3-thiazol-2-ylbenzenesulfonamide], the IC50 is 3110 nM.

`Cc1cnsc1-c1ccccc1Oc1ccc(S(=O)(=O)Nc2nccs2)cc1F` [Example 129, 3-fluoro-4-[2-(4-methylisothiazol-5-yl)phenoxy]-N-1,3-thiazol-2-ylbenzenesulfonamide]: the IC50 was 700 nM.

Regarding `Cc1nc(-c2ccccc2Oc2ccc(S(=O)(=O)Nc3nccs3)cc2F)cs1` [Example 130, 3-fluoro-4-[2-(2-methyl-1,3-thiazol-4-yl)phenoxy]-N-1,3-thiazol-2-ylbenzenesulfonamide], the half-maximal inhibitory concentration (IC50) was 9190 nM.

For the compound `O=S(=O)(Nc1nccs1)c1ccc(Oc2ccccc2-c2ccccn2)c(F)c1` [Example 131, 3-fluoro-4-(2-pyridin-2-ylphenoxy)-N-1,3-thiazol-2-ylbenzenesulfonamide], the IC50 was 12100 nM.

Consider `CCc1nnc(C)n1-c1ccc(Oc2ccc(S(=O)(=O)Nc3nccs3)cc2F)cc1` [Example 132, 4-[4-(3-ethyl-5-methyl-4H-1,2,4-triazol-4-yl)phenoxy]-3-fluoro-N-1,3-thiazol-2-ylbenzenesulfonamide], for which the IC50 was 17300 nM.

Regarding `O=S(=O)(Nc1nccs1)c1ccc(Oc2ccccc2C2CCCCO2)c(F)c1` (stereo not shown) [Example 133, 3-fluoro-4-[2-(tetrahydro-2H-pyran-2-yl)phenoxy]-N-1,3-thiazol-2-ylbenzenesulfonamide], the IC50 is 11600 nM.

For `N#Cc1cc(S(=O)(=O)Nc2ncc(Cl)s2)ccc1Oc1ccccc1Oc1ccccc1` [Example 134, N-(5-chloro-1,3-thiazol-2-yl)-3-cyano-4-(2-phenoxyphenoxy)benzenesulfonamide], the IC50 was 3770 nM.

For the compound `N#Cc1cc(S(=O)(=O)Nc2ncc(Cl)s2)ccc1Oc1ccccc1Oc1ccncc1` [Example 135, N-(5-chloro-1,3-thiazol-2-yl)-3-cyano-4-[2-(pyridin-4-yloxy)phenoxy]benzenesulfonamide], the IC50 is 730 nM.

`N#Cc1cc(S(=O)(=O)Nc2ncc(Cl)s2)ccc1Oc1ccccc1OCc1ccccc1` [Example 136, 4-[2-(benzyloxy)phenoxy]-N-(5-chloro-1,3-thiazol-2-yl)-3-cyanobenzenesulfonamide]: the IC50 is 2700 nM.

As to `Cn1cc(-c2ccc(Cl)cc2)c(Oc2ccc(S(=O)(=O)Nc3ncc(Cl)s3)cc2C#N)n1` [Example 137, 4-{[4-(4-chlorophenyl)-1-methyl-1H-pyrazol-3-yl]oxy}-N-(5-chloro-1,3-thiazol-2-yl)-3-cyanobenzenesulfonamide], the IC50 was 2590 nM.

For the compound `Cn1ncc(-c2ccccc2)c1Oc1ccc(S(=O)(=O)Nc2ncc(Cl)s2)cc1C#N` [Example 138, N-(5-chloro-1,3-thiazol-2-yl)-3-cyano-4-[(1-methyl-4-phenyl-1H-pyrazol-5-yl)oxy]benzenesulfonamide], the IC50 was 38700 nM.

As for `Cc1cn(Cc2ccccc2)nc1Oc1ccc(S(=O)(=O)Nc2ncc(Cl)s2)cc1C#N` [Example 139, 4-[(1-benzyl-4-methyl-1H-pyrazol-3-yl)oxy]-N-(5-chloro-1,3-thiazol-2-yl)-3-cyanobenzenesulfonamide], the IC50 was 5000 nM.

As to `CC(C)c1nn(-c2ccccc2Cl)cc1Oc1ccc(S(=O)(=O)Nc2ncc(Cl)s2)cc1C#N` [Example 140, 4-{[1-(2-chlorophenyl)-3-isopropyl-1H-pyrazol-4-yl]oxy}-N-(5-chloro-1,3-thiazol-2-yl)-3-cyanobenzenesulfonamide], the IC50 is 3410 nM.

For `N#Cc1cc(S(=O)(=O)Nc2ncc(Cl)s2)ccc1Oc1cc(C(F)(F)F)nn1-c1ccccc1` [Example 141, N-(5-chloro-1,3-thiazol-2-yl)-3-cyano-4-{[1-phenyl-3-(trifluoromethyl)-1H-pyrazol-5-yl]oxy}benzenesulfonamide], the IC50 was 1230 nM.

On to `N#Cc1cc(S(=O)(=O)Nc2ncc(Cl)s2)ccc1Oc1cc(C(F)(F)F)nn1Cc1ccccc1` [Example 142, 4-{[1-benzyl-3-(trifluoromethyl)-1H-pyrazol-5-yl]oxy}-N-(5-chloro-1,3-thiazol-2-yl)-3-cyanobenzenesulfonamide], for which the IC50 was 2620 nM.

Regarding `Cc1cc(Oc2ccc(S(=O)(=O)Nc3ncc(Cl)s3)cc2C#N)n(C2CCCCC2)n1` [Example 143, N-(5-chloro-1,3-thiazol-2-yl)-3-cyano-4-[(1-cyclohexyl-3-methyl-1H-pyrazol-5-yl)oxy]benzenesulfonamide], the IC50 was greater than 10000 nM.

With `N#Cc1cc(S(=O)(=O)Nc2ncc(Cl)s2)ccc1Oc1ccccc1C1CC1` [Example 144, N-(5-chloro-1,3-thiazol-2-yl)-3-cyano-4-(2-cyclopropylphenoxy)benzenesulfonamide], the IC50 is 1390 nM.

For the compound `COc1ccc(-n2cc(Oc3ccc(S(=O)(=O)Nc4ncc(Cl)s4)cc3C#N)c(C(C)C)n2)cc1` [Example 145, N-(5-chloro-1,3-thiazol-2-yl)-3-cyano-4-{[3-isopropyl-1-(4-methoxyphenyl)-1H-pyrazol-4-yl]oxy}benzenesulfonamide], the IC50 was 2000 nM.

As to `N#Cc1cc(S(=O)(=O)Nc2ncc(Cl)s2)ccc1Oc1ccccc1-c1ccccc1` [Example 146, 4-(biphenyl-2-yloxy)-N-(5-chloro-1,3-thiazol-2-yl)-3-cyanobenzenesulfonamide], the IC50 is 890 nM.

In the case of `O=S(=O)(Nc1ncc(Cl)s1)c1ccc(Oc2ccccc2-c2ccccc2)c(F)c1` [Example 147, 4-(Biphenyl-2-yloxy)-N-(5-chloro-thiazol-2-yl)-3-fluoro-benzenesulfonamide], the IC50 is 1510 nM.

Regarding `O=S(=O)(Nc1ncns1)c1ccc(Oc2ccc(CC3CC3)cc2)c(Cl)c1` [Example 148, 3-chloro-4-[4-(cyclopropylmethyl)phenoxy]-N-1,2,4-thiadiazol-5-ylbenzenesulfonamide], the IC50 is 2530 nM.

`O=S(=O)(Nc1ncns1)c1ccc(Oc2ccc(-c3ccccc3)cc2)c(Cl)c1` [Example 149, 4-(biphenyl-4-yloxy)-3-chloro-N-1,2,4-thiadiazol-5-ylbenzenesulfonamide]: the IC50 was 920 nM.

Consider `O=S(=O)(Nc1ncns1)c1ccc(Oc2ccccc2-c2ccccc2)c(Cl)c1` [Example 150, 4-(biphenyl-2-yloxy)-3-chloro-N-1,2,4-thiadiazol-5-ylbenzenesulfonamide], for which the IC50 was 190 nM.

As for `COc1ccc(-c2cc(F)ccc2Oc2ccc(S(=O)(=O)Nc3nccs3)cc2C#N)cn1` [Example 151, 3-cyano-4-[4-fluoro-2-(6-methoxypyridin-3-yl)phenoxy]-N-1,3-thiazol-2-ylbenzenesulfonamide], the IC50 was 50 nM.

For the compound `N#Cc1cc(S(=O)(=O)Nc2nccs2)ccc1Oc1ccc(F)cc1-c1ccc(F)cc1` [Example 152, 3-cyano-4-[(4′,5-difluorobiphenyl-2-yl)oxy]-N-1,3-thiazol-2-ylbenzenesulfonamide], the IC50 was 80 nM.

As for `N#Cc1cc(S(=O)(=O)Nc2nccs2)ccc1Oc1ccc(F)cc1-c1cccc(CCO)c1` [Example 153, 3-cyano-4-{[5-fluoro-3′-(2-hydroxyethyl)biphenyl-2-yl]oxy}-N-1,3-thiazol-2-ylbenzenesulfonamide], the half-inhibitory concentration (IC50) was 60 nM.

With `COc1cccc(-c2cc(F)ccc2Oc2ccc(S(=O)(=O)Nc3nccs3)cc2C#N)c1` [Example 154, 3-cyano-4-[(5-fluoro-3′-methoxybiphenyl-2-yl)oxy]-N-1,3-thiazol-2-ylbenzenesulfonamide], the IC50 was 130 nM.

`CC(C)Oc1ccc(-c2cc(Cl)ccc2Oc2ccc(S(=O)(=O)Nc3nccs3)cc2C#N)cc1` [Example 155, 4-[(5-chloro-4′-isopropoxybiphenyl-2-yl)oxy]-3-cyano-N-1,3-thiazol-2-ylbenzenesulfonamide]: the IC50 is 850 nM.
